Results from US20080132562A1, “TETRONIC AND TETRAMIC ACIDS” (priority 2003, published 2008).

target: T1, purified BACE protein (β-secretase) (Homo sapiens, UniProt P56817); assay: Competitive Radioligand Binding Assay (RLBA); conditions: β-secretase inhibition; displacement of tritiated Compound A tracer from plate-coated BACE, binding buffer pH 4.1; read-out: IC50 in vitro
T1 construct: made in house
Procedure: Competitive Radioligand Binding Assay (RLBA)
96 well microplates (Optiplate Packard) are coated with purified BACE protein (see e.g. GB 2,385,124: Examples 1 and 2) using a concentration of 1 μg/ml in 30 mM sodium citrate buffer adjusted to pH 5.5. The coating is achieved by incubation of 100 μl/well for 1-3 days at 4° C. The plate is then washed with 2×300 μl/well of 10 mM citrate pH 4.1. To each well 100 μl binding buffer (30 mM citrate, 100 mM NaCl, 0.1% BSA, pH 4.1) is dispensed. The test compound is added in 5 μl from a DMSO stock solution or appropriate dilutions. To this the tracer (tritiated Compound A, see e.g. GB 2,385,124: Example 4) is added in 10 μl/well from a 10 μCi/ml stock solution in binding buffer. After incubation for 1.5-2 hours in a humid chamber at ambient temperature the plate is washed with 2×300 μl/well water and flipped on a dry towel. Following the addition of 50 μl/well MicroScint20 (Packard) the plate is sealed and vibrated for 5 seconds. The bound radioactivity is counted on a Topcount (Packard). Total binding is typically between 2000 and 10000 cpm/well depending mainly on the purity and concentration of the BACE protein. Non-specific binding as assessed by competition with >1 μM peptidic inhibitor (Bachem #H-4848) is typically between 30 and 300 cpm/well. The IC-50 values are calculated by Microsoft Excel FIT.

T1 sequence (P56817 46-501): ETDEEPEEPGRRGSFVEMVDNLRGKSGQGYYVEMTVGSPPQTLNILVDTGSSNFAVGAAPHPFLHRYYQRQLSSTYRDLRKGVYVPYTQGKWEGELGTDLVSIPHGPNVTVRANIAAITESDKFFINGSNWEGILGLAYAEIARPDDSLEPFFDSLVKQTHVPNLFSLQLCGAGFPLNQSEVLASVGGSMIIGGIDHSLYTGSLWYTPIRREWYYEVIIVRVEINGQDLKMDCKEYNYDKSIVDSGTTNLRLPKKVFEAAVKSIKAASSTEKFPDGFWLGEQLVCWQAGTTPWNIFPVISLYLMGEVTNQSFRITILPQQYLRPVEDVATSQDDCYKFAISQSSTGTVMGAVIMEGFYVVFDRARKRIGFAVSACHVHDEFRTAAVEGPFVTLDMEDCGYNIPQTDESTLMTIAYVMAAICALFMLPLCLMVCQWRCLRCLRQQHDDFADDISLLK

Structure (SMILES) | IC50 [µM]
CC(Cc1ccc(OCc2ccccc2)cc1)C(=O)C1=C(O)C(CC2CCCCC2)OC1=O (stereo not drawn) [Example C9, 3-[3-(4-Benzyloxy-phenyl)-2-methyl-propionyl]-5-cyclohexylmethyl-4-hydroxy-5H-furan-2-one] | 13
NC(Cc1ccc(OCc2ccccc2)cc1)C(=O)C1=C(O)C(CCc2ccccc2)NC1=O (stereo not drawn) [Example K38, 3-[2-Amino-3-(4-benzyloxy-phenyl)-propionyl]-4-hydroxy-5-phenethyl-1,5-dihydro-pyrrol-2-one; compound with trifluoro-acetic acid] | 16
O=C(CC(c1ccccc1)c1ccccc1)C1=C(O)C(CCCN2CCOCC2)OC1=O (stereo not drawn) [Example G29, 3-(3,3-Diphenyl-propionyl)-4-hydroxy-5-(3-morpholin-4-yl-propyl)-5H-furan-2-one] | 85
O=C(CC(c1ccccc1)c1ccccc1)C1=C(O)C(CCc2ccccc2)(c2ccccc2)OC1=O (stereo not drawn) [Example J4, 3-(3,3-Diphenyl-propionyl)-4-hydroxy-5-phenethyl-5-phenyl-5H-furan-2-one] | 41
CC(Cc1ccc(C(C)(C)C)cc1)C(=O)C1=C(O)C(Cc2ccccc2)OC1=O (stereo not drawn) [Example D2, 5-Benzyl-3-[3-(4-tert-butyl-phenyl)-2-methyl-propionyl]-4-hydroxy-5H-furan-2-one] | 33
O=C(CCCC1CCCCC1)C1=C(O)C(CCc2ccccc2)OC1=O (racemic) [Example E7, Rac-3-(4-cyclohexyl-butyryl)-4-hydroxy-5-phenethyl-5H-furan-2-one] | 57

Further lines, results first:

IC50 [µM] | Structure (SMILES)
36 | O=C(Cn1c2ccccc2c2ccccc21)C1=C(O)C(CCc2ccccc2)NC1=O (stereo not drawn) [Example K46, 3-(Carbazol-9-yl-acetyl)-4-hydroxy-5-phenethyl-1,5-dihydro-pyrrol-2-one]
14 | O=C(Cc1c[nH]c2ccccc12)C1=C(O)C(CCCc2ccccc2)OC1=O (stereo not drawn) [Example F5, 4-Hydroxy-3-[(H-indol-3-yl)-acetyl]-5-(3-phenyl-propyl)-5H-furan-2-one]
31 | CC1(CCc2ccccc2)OC(=O)C(C(=O)CC2c3ccccc3-c3ccccc32)=C1O (stereo not drawn) [Example I7, 3-[(9H-Fluoren-9-yl)-acetyl]-4-hydroxy-5-methyl-5-phenethyl-5H-furan-2-one]
11 | O=C(Cn1c2ccccc2c2ccccc21)C1=C(O)C(CC2CCCCC2)OC1=O (stereo not drawn) [Example C33, 3-(Carbazol-9-yl-acetyl)-5-cyclohexylmethyl-4-hydroxy-5H-furan-2-one]
12 | COc1ccc(Cl)cc1C(=O)NCCc1ccc(CC(C)C(=O)C2=C(O)C(CC3CCCCC3)OC2=O)cc1 (stereo not drawn) [Example C12, 5-Chloro-N-(2-{4-[3-(5-cyclohexylmethyl-4-hydroxy-2-oxo-2,5-dihydro-furan-3-yl)-2-methyl-3-oxo-propyl]-phenyl}-ethyl)-2-methoxy-benzamide]
15 | O=C(Cc1cn(Cc2ccc(F)cc2)c2ccccc12)C1=C(O)C(CC2CCCCC2)OC1=O (stereo not drawn) [Example C19, 5-Cyclohexylmethyl-3-{[1-(4-fluoro-benzyl)-1H-indol-3-yl]-acetyl}-4-hydroxy-5H-furan-2-one]
